Laboratory results reported in the NIST ThermoML archive (doi:10.1021/je7000232).
Numbers after ± are expanded uncertainties.

Assays:
[1] = excess molar enthalpy (molar enthalpy of mixing); xn = mol fraction of the nth substance listed; settings: 101 kPa, Liquid
[2] = xn = mol fraction of the nth substance listed; settings: 293.15 K, 101 kPa, Liquid, Capillary tube (Ostwald / Ubbelohde) method
[3] = Liquid, Closed cell (Static) method

SMILES: CC(O)C(=O)[O-].C[N+](C)(C)CCO [choline lactate] + O
- excess molar enthalpy ([1]; 303.15 K, x2 = 0.1585): -0.938 ± 0.0765 kcal/mol
- excess molar enthalpy ([1]; 303.15 K, x2 = 0.2269): -1.51 ± 0.122 kcal/mol
- excess molar enthalpy ([1]; 303.15 K, x2 = 0.3051): -2.04 ± 0.165 kcal/mol
- excess molar enthalpy ([1]; 303.15 K, x2 = 0.3528): -2.4 ± 0.194 kcal/mol
- excess molar enthalpy ([1]; 303.15 K, x2 = 0.4853): -3.35 ± 0.263 kcal/mol
- excess molar enthalpy ([1]; 303.15 K, x2 = 0.671): -4.12 ± 0.335 kcal/mol
- excess molar enthalpy ([1]; 303.15 K, x2 = 0.8719): -4.37 ± 0.359 kcal/mol
- excess molar enthalpy ([1]; 303.15 K, x2 = 0.9078): -3.55 ± 0.287 kcal/mol
- excess molar enthalpy ([1]; 303.15 K, x2 = 0.9751): -1.87 ± 0.153 kcal/mol
- excess molar enthalpy ([1]; 303.15 K, x2 = 0.9878): -0.604 ± 0.0502 kcal/mol
- excess molar enthalpy ([1]; 313.15 K, x2 = 0.1687): -0.723 ± 0.0598 kcal/mol
- excess molar enthalpy ([1]; 313.15 K, x2 = 0.2123): -1.1 ± 0.0908 kcal/mol
- excess molar enthalpy ([1]; 313.15 K, x2 = 0.3065): -1.57 ± 0.127 kcal/mol
- excess molar enthalpy ([1]; 313.15 K, x2 = 0.3943): -2.11 ± 0.17 kcal/mol
- excess molar enthalpy ([1]; 313.15 K, x2 = 0.5019): -2.6 ± 0.21 kcal/mol
- excess molar enthalpy ([1]; 313.15 K, x2 = 0.603): -2.9 ± 0.234 kcal/mol
- excess molar enthalpy ([1]; 313.15 K, x2 = 0.738): -3.3 ± 0.263 kcal/mol
- excess molar enthalpy ([1]; 313.15 K, x2 = 0.8794): -3.48 ± 0.287 kcal/mol
- excess molar enthalpy ([1]; 313.15 K, x2 = 0.9535): -2.47 ± 0.198 kcal/mol
- excess molar enthalpy ([1]; 313.15 K, x2 = 0.9769): -1.55 ± 0.127 kcal/mol
- excess molar enthalpy ([1]; 323.15 K, x2 = 0.16): -0.368 ± 0.0311 kcal/mol
- excess molar enthalpy ([1]; 323.15 K, x2 = 0.2662): -0.649 ± 0.055 kcal/mol
- excess molar enthalpy ([1]; 323.15 K, x2 = 0.331): -0.856 ± 0.0693 kcal/mol
- excess molar enthalpy ([1]; 323.15 K, x2 = 0.5059): -1.55 ± 0.127 kcal/mol
- excess molar enthalpy ([1]; 323.15 K, x2 = 0.6257): -2.15 ± 0.174 kcal/mol
- excess molar enthalpy ([1]; 323.15 K, x2 = 0.7785): -2.6 ± 0.21 kcal/mol
- excess molar enthalpy ([1]; 323.15 K, x2 = 0.8805): -2.09 ± 0.17 kcal/mol
- excess molar enthalpy ([1]; 323.15 K, x2 = 0.9555): -1.1 ± 0.0908 kcal/mol
- excess molar enthalpy ([1]; 323.15 K, x2 = 0.9884): -0.239 ± 0.021 kcal/mol
- viscosity ([2]; x2 = 0.0272): 5850 mPa·s
- viscosity ([2]; x2 = 0.382): 940 ± 440 mPa·s
- viscosity ([2]; x2 = 0.546): 336 ± 94 mPa·s
- viscosity ([2]; x2 = 0.731): 75 ± 10 mPa·s
- viscosity ([2]; x2 = 0.878): 12.5 ± 1.1 mPa·s
- viscosity ([2]; x2 = 0.915): 6.5 ± 0.4 mPa·s
- viscosity ([2]; x2 = 0.941): 3.9 ± 0.3 mPa·s

SMILES: O [water]
- vapor or sublimation pressure ([3]; 303.15 K): 4.24 ± 0.33 kPa
- vapor or sublimation pressure ([3]; 313.15 K): 7.38 ± 0.33 kPa
- vapor or sublimation pressure ([3]; 323.15 K): 12.34 ± 0.35 kPa
